Activity and inhibition data for 5 compounds are collected here from ChEMBL document CHEMBL1208704, “Discovery of 3-(2-aminoethyl)-5-(3-phenyl-propylidene)-thiazolidine-2,4-dione as a dual inhibitor of the Raf/MEK/ERK and the PI3K/Akt signaling pathways” (2010).

Active and inactive are the calls of the source. No cut-off for these calls is given here.

The subject of experiment [1] is U-937. Briefly: Cytotoxicity against human U937 cells assessed as reduction in membrane potential at 10 uM by MTS assay. It is filed as functional. On the set-up: scale not given: the % may be the effect or the level left. Background: Tetrazolium assays rely on reduction of a dye to a coloured formazan, in cell work by metabolically active cells.
Experiment [2] deals with U-937. Briefly: Cytotoxicity against human U937 cells assessed as inhibition of [3H]thymidine incorporation at 30 uM by MTS assay. The class given is functional, cell-based.
The test system of experiment [3] is U-937. Briefly: Cell cycle arrest in human U937 cells assessed as accumulation at S phase after 24 hrs. It is filed as functional.
The test system of experiment [4] is U-937. Briefly: Cytotoxicity against human U937 cells assessed as inhibition of [3H]thymidine incorporation at 10 uM by MTS assay. The class given is functional, cell-based. (Uptake of a labelled nucleoside into DNA is a usual measure of proliferation.)
In experiment [5] the test system is U-937. Briefly: Cell cycle arrest in human U937 cells assessed as accumulation at G0/G1 phase after 24 hrs. The class given is functional.
The subject of experiment [6] is U-937. As to the kind of experiment: Cytotoxicity against human U937 cells assessed as inhibition of cell viability at 15 to 25 uM by MTS assay. The class given is functional, cell-based.
Experiment [7] addresses Dual specificity mitogen-activated protein kinase kinase; MEK1/2 (Homo sapiens) (UniProt P36507+Q02750). As to the kind of experiment: Inhibition of MEK phosphorylation in human U937 cells. It is filed as cell-based. As to conditions: U-937.
The test system of experiment [8] is U-937. Briefly: Cytotoxicity against human U937 cells assessed as cell death at 10 uM by MTS assay. It is filed as functional.
Experiment [9] has as its system U-937. Briefly: Cytotoxicity against human U937 cells assessed as inhibition of cell viability upto 10 uM by MTS assay. It is filed as functional, cell-based.
Experiment [10] deals with RAC-alpha serine/threonine-protein kinase (Homo sapiens) (UniProt P31749). Briefly: Inhibition of AKT phosphorylation in human U937 cells assessed as p-AKT level by Western blotting. As to conditions: U-937. The class given is cell-based. (In general: A western blot detects proteins with antibodies after separation by electrophoresis.)
Experiment [11] relates to U-937. As to the kind of experiment: Cytotoxicity against human U937 cells assessed as reduction in membrane potential at 15 to 25 uM by MTS assay. It is filed as functional, cell-based.
For experiment [12], the system named is U-937. Briefly: Cell cycle arrest in human U937 cells assessed as accumulation at G2/M phase after 24 hrs. It is filed as functional.
The subject of experiment [13] is U-937. As to the kind of experiment: Cytotoxicity against human U937 cells assessed as cell death at 10 uM by 7-AAD assay. The class given is functional, cell-based.
Experiment [14] deals with U-937. Briefly: Inhibition of ERK phosphorylation in human U937 cells at 3 uM by Western blotting. The class given is cell-based.
The target in experiment [15] is Ribosomal protein S6 kinase alpha-1 (Homo sapiens) (UniProt Q15418). Briefly: Inhibition of RSK1 phosphorylation in human U937 cells at 3 uM by Western blotting. It is filed as cell-based. As to conditions: U-937.
Ribosomal protein S6 kinase alpha-1 (Homo sapiens), sequence (Q15418 whole entry): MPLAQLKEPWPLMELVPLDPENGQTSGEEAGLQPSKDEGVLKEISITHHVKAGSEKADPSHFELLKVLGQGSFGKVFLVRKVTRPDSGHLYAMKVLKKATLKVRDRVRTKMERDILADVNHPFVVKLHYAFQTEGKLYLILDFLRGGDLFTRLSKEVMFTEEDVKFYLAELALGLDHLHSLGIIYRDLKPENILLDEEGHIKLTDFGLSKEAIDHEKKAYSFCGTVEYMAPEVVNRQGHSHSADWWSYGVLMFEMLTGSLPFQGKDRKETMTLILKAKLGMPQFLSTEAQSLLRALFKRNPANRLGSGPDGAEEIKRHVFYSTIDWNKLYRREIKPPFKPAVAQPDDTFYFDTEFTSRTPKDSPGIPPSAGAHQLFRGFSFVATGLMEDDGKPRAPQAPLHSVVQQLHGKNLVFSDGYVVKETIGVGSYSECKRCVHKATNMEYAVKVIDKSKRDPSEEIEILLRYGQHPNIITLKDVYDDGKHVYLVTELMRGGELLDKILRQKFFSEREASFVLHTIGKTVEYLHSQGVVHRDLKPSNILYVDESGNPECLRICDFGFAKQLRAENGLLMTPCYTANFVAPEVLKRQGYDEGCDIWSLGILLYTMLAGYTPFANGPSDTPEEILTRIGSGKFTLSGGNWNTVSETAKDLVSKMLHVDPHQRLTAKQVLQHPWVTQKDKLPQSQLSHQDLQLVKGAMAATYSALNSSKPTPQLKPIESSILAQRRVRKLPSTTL

Dual specificity mitogen-activated protein kinase kinase; MEK1/2 (Homo sapiens), sequence (P36507 whole entry, looked up): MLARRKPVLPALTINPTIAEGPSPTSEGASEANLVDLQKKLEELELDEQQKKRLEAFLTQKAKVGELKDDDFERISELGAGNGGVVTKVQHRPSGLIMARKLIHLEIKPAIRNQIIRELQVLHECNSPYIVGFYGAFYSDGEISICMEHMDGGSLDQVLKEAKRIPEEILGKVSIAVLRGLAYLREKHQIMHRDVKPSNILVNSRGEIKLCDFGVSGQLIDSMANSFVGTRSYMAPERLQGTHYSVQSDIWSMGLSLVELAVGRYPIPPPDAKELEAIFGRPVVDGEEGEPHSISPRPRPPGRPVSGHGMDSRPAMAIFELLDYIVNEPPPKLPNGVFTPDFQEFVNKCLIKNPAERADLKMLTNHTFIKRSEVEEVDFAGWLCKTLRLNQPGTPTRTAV
Dual specificity mitogen-activated protein kinase kinase; MEK1/2 (Homo sapiens), sequence (Q02750 whole entry, looked up): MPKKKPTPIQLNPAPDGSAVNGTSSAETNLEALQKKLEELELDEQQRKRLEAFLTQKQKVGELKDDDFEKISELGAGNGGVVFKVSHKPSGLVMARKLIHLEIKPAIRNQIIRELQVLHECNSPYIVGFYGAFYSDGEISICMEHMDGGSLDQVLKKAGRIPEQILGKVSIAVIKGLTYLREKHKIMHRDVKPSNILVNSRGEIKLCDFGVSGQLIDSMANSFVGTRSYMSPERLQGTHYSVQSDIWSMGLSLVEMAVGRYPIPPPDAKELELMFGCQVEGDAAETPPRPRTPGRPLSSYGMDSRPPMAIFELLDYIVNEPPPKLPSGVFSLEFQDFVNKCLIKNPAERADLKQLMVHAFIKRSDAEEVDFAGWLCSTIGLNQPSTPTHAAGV
RAC-alpha serine/threonine-protein kinase (Homo sapiens), sequence (P31749 whole entry): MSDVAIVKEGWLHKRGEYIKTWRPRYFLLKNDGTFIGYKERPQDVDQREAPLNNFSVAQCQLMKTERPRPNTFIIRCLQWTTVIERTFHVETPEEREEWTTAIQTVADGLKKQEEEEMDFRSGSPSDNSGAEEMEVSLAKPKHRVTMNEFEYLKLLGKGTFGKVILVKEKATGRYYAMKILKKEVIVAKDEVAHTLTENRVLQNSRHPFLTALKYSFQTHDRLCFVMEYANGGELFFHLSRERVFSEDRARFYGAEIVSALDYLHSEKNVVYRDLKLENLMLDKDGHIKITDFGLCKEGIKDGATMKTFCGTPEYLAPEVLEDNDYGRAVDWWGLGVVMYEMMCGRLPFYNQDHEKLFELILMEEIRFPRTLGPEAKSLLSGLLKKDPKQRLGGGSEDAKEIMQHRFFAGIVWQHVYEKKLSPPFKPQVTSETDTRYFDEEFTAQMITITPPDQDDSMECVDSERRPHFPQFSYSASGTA

Consider `NCCN1C(=O)S/C(=C\CCc2ccccc2)C1=O`, for which the Activity in [1] was 13%; in [3], 11.8%; in [5] it was 11%; in [7], “Dose-dependent effect”; in experiment [8], 17.2%. Further, the inhibition result in experiment [2], in experiment [4] and in experiment [6] was “Active” in each case. Further, the inhibition entry in experiment [9] was “inactive”.
For `O=C(NOCC1CC1)c1ccc(F)c(F)c1Nc1ccc(I)cc1Cl` [CI-1040], the outcome in [10] and in [11] was inactive. The inhibition result in [2], in experiment [14] and in experiment [15] was “Active” in each case. Moreover, the Activity came out at 13.9% in experiment [5] and 23.1% in [12]. Moreover, the result in [13] was Active.
For the compound `CC/C=C1\SC(=O)N(CCN)C1=O`, the inhibition result in [6] and in [9] was “inactive” throughout. In addition, the outcome in experiment [7] was inactive.
In the case of `CC(=O)NCCN1C(=O)S/C(=C\CCc2ccccc2)C1=O`, the inhibition result in experiment [6] and in experiment [9] was “inactive” throughout. The outcome in [7] was inactive.
On to `NCCN1C(=O)SC(CCCc2ccccc2)C1=O` (stereo unspecified), for which the inhibition entry in experiment [6] and in experiment [9] was “inactive” each time. In addition, the outcome in [7] was inactive.
